Columns and labels:
[1] = tested on: NUT (nuclear protein in testis) midline carcinoma (NMC); details: murine xenograft models of NMC; Filippakopoulos et al. (2010); cited from earlier work
multiple myeloma = details: associated with cell cycle arrest and cellular senescence, Delmore et al. (2011); cited from earlier work
Brd4 bromodomain 1 = target: T1, Brd4 bromodomain 1 (Homo sapiens, UniProt O60885); test: TR-FRET inhibition of tetra-acetylated histone H4 binding to Brd4 bromodomain 1; details: tetra-acetylated histone H4 peptide and Brd4 bromodomain 1, 2 hours at room temperature
T1 construct: Illustrative results with the first bromodomain of Brd4; made in house; host or cells: E. coli BL21(DE3)
Method: Proteins were cloned and overexpressed with a N-terminal 6×His tag, then purified by nickel affinity followed by size exclusion chromatography. Briefly, E. coli BL21(DE3) cells were transformed with a recombinant expression vector encoding N-terminally Nickel affinity tagged bromodomains from Brd2, Brd3, Brd4. Cell cultures were incubated at 37° C. with shaking to the appropriate density and induced overnight with IPTG. The supernatant of lysed cells was loaded onto Ni-IDA column for purification. Eluted protein was pooled, concentrated and further purified by size exclusion chromatography. Fractions representing monomeric protein are pooled, concentrated, aliquoted, and frozen at −80° C. for use in subsequent experiments.
Binding of tetra-acetylated histone H4 and BET bromodomains was confirmed by a Time Resolved Fluorescence Resonance Energy Transfer (TR-FRET) method. N-terminally His-tagged bromodomains (200 nM) and biotinylated tetra-acetylated histone H4 peptide (25-50 nM, Millipore) were incubated in the presence of Europium Cryptate-labeled streptavidin (Cisbio Cat. #610SAKLB) and XL665-labeled monoclonal anti-His antibody (Cisbio Cat. #61 HISXLB) in a white 96 well microtiter plate (Greiner). For inhibition assays, serially diluted test compound was added to these reactions in a 0.2% final concentration of DMSO. Final buffer concentrations were 30 mM HEPES pH 7.4, 30 mM NaCl, 0.3 mM CHAPS, 20 mM phosphate pH 7.0, 320 mM KF, 0.08% BSA). After 2 hours incubation at room temperature, the fluorescence by FRET was measured at 665 and 620 nm by a SynergyH4 plate reader (Biotek). The binding inhibitory activity was shown by a decrease in 665 nm fluorescence relative to 620 nm. IC50 values were determined from a dose response curve.

IL-6 = details: in vivo; cited from earlier work
c-myc = test: Inhibition of c-myc expression (mRNA, real-time PCR) in MV4-11 cells; format: cell-based; design: key: Active: Compounds with an IC50 value less than 30 uM were deemed to be active; details: c-myc mRNA in human AML MV4-11 cells, 3 hours incubation
Method: MV4-11 cells (2.5×10^4 cells) were plated in 96 well U-bottom plates with test compound or DMSO (0.1%), and incubated for 3 hours at 37° C. Cells were then harvested by centrifugation, lysed, and mRNA was isolated using the mRNA catcher plus kit (Invitrogen). Reverse transcription of the mRNA and duplex amplification of the c-myc and cyclophilin cDNAs was performed using the RNA Ultrasense kit (Invitrogen) and a ViiA7 real-time PCR machine (Applied Biosystems). IC50 values were determined from a dose response curve.

Human AML MV-4-11 cells = test: Inhibition of cell proliferation in human AML MV-4-11 cells; format: cell-based; design: key: Active: Compounds with an IC50 value less than 30 uM were deemed to be active; details: 72 hours, CellTiter Aqueous One
Method: MV4-11 cells: 96-well plates were seeded with 5×10^4 cells per well of exponentially growing human AML MV-4-11 (CRL-9591) cells and immediately treated with two-fold dilutions of test compounds, ranging from 30 μM to 0.2 μM. Triplicate wells were used for each concentration, as well as a media only and three DMSO control wells. The cells and compounds were incubated at 37° C., 5% CO2 for 72 hours before adding 20 μL of the CellTiter Aqueous One Solution (Promega) to each well and incubating at 37° C., 5% CO2 for an additional 3-4 hours. The absorbance was taken at 490 nm in a spectrophotometer and the percentage of proliferation relative to DMSO-treated cells was calculated after correction from the blank well. IC50 were calculated using the GraphPad Prism software.

[2] = tested on: bacterial-induced inflammation and sepsis; details: murine model; Lamotte et al. (2012); cited from earlier work

Cc1sc2c(c1C)C(c1ccc(Cl)cc1)=N[C@@H](CC(=O)OC(C)(C)C)c1nnc(C)n1-2 [JQ1]
antitumor activity [1]: potent antitumor activity
antiproliferative effect (multiple myeloma): potent antiproliferator

COc1ccc(NC(=O)COc2c(C)cc(-c3nc4cc(OC)cc(OC)c4c(=O)[nH]3)cc2C)cc1 [Example 23, 2-[4-(5,7-Dimethoxy-4-oxo-3,4-dihydro-quinazolin-2-yl)-2,6-dimethyl-phenoxy]-N-(4-methoxy-phenyl)-acetamide]
FRET activity (<50 uM) (Brd4 bromodomain 1): Active

COc1cc(OC)c2c(=O)[nH]c(-c3cc(C)c(OCCNc4cc(C)on4)c(C)c3)nc2c1 [Example 46, 2-(3,5-dimethyl-4-(2-(5-methylisoxazol-3-ylamino)ethoxy)phenyl)-5,7-dimethoxyquinazolin-4(3H)-one]
FRET activity (<50 uM) (Brd4 bromodomain 1): Active

COc1cc(OC)c2c(=O)[nH]c(-c3cc(C)c(OCCNS(=O)(=O)C(C)C)c(C)c3)nc2c1 [Example 37, N-(2-(4-(5,7-dimethoxy-4-oxo-3,4-dihydroquinazolin-2-yl)-2,6-dimethylphenoxy)ethyl)propane-2-sulfonamide]
FRET activity (<50 uM) (Brd4 bromodomain 1): Active

COc1cc(OCCOCc2ccccc2)cc2nc(-c3cc(C)c(OCCO)c(C)c3)[nH]c(=O)c12 [Example 20, 7-(2-benzyloxy-ethoxy)-2-[4-(2-hydroxy-ethoxy)-3,5-dimethyl-phenyl]-5-methoxy-3H-quinazolin-4-one]
FRET activity (<50 uM) (Brd4 bromodomain 1): Active

Cc1cc(-c2nc3ccc(CN4CCN(C)CC4)cc3c(=O)[nH]2)cc(C)c1O [Example 10, 2-(4-hydroxy-3,5-dimethylphenyl)-6-((4-methylpiperazin-1-yl)methyl)quinazolin-4(3H)-one]
FRET activity (<50 uM) (Brd4 bromodomain 1): Active

Cc1cc(-c2nc3ccc(Nc4ccncc4)cc3c(=O)[nH]2)cc(C)c1O [Example 8, 2-(4-hydroxy-3,5-dimethyl-phenyl)-6-(pyridin-4-ylamino)-3H-quinazolin-4-one]
FRET activity (<50 uM) (Brd4 bromodomain 1): Active

COc1cc(OC)c2c(=O)[nH]c(-c3cc(C)c(OCCNC(C)=O)c(C)c3)nc2n1 [Example 31, N-{2-[4-(5,7-dimethoxy-4-oxo-3,4-dihydro-pyrido[2,3-d]pyrimidin-2-yl)-2,6-dimethyl-phenoxy]-ethyl}-acetamide]
FRET activity (<50 uM) (Brd4 bromodomain 1): Active

CCNC(=O)C[C@@H]1N=C(c2ccc(Cl)cc2)c2cc(OC)ccc2-n2c(C)nnc21 [I-BET]
IL-6 expression (IL-6): decrease IL-6 expression

COc1cc(OC)c2c(=O)[nH]c(-c3cc(C)c(CNC(C)=O)c(C)c3)nc2c1 [Example 32, N-(4-(5,7-dimethoxy-4-oxo-3,4-dihydroquinazolin-2-yl)-2,6-dimethylbenzyl)acetamide]
c-myc activity (<30 uM) (c-myc): Inactive
FRET activity (<50 uM) (Brd4 bromodomain 1): Active
cell proliferation activity (<30 uM) (Human AML MV-4-11 cells): Inactive

COc1cc(OC)c2c(=O)[nH]c(-c3cc(C)c(OCCCCO)c(C)c3)nc2c1 [Example 25, 2-[4-(4-hydroxy-butoxy)-3,5-dimethyl-phenyl]-5,7-dimethoxy-3H-quinazolin-4-one]
FRET activity (<50 uM) (Brd4 bromodomain 1): Active

COc1cc(OC)c2c(=O)[nH]c(-c3cc(C)c(OCCN(C)C=O)c(C)c3)nc2c1 [Example 43, N-(2-(4-(5,7-dimethoxy-4-oxo-3,4-dihydroquinazolin-2-yl) 2,6-dimethylphenoxy)ethyl)-N-methylformamide]
FRET activity (<50 uM) (Brd4 bromodomain 1): Active

COc1cc(OC)c2c(=O)[nH]c(-c3cc(C)c(OCCNc4ncccn4)c(C)c3)nc2c1 [Example 47, 2-(3,5-dimethyl-4-(2-(pyrimidin-2-ylamino)ethoxy)phenyl)-5,7-dimethoxyquinazolin-4(3H)-one]
FRET activity (<50 uM) (Brd4 bromodomain 1): Inactive

COc1cc(OC)c2c(=O)[nH]c(-c3cc(C)c(OCCNc4nc(C)no4)c(C)c3)nc2c1 [Example 30, 2-{3,5-Dimethyl-4-[2-(3-methyl-[1,2,4]oxadiazol-5-ylamino)-ethoxy]-phenyl}-5,7-dimethoxy-3H-quinazolin-4-one]
FRET activity (<50 uM) (Brd4 bromodomain 1): Active

COc1cc(OC)c2c(=O)[nH]c(-c3cc(C)c(OCCNc4ccon4)c(C)c3)nc2c1 [Example 48, 2-(4-(2-(isoxazol-3-ylamino)ethoxy)-3,5-dimethylphenyl)-5,7-dimethoxyquinazolin-4(3H)-one]
FRET activity (<50 uM) (Brd4 bromodomain 1): Active

COc1cc(OC)c2c(=O)[nH]c(-c3cc(C)c(OCCNC(C)C)c(C)c3)nc2c1 [Example 38, 2-(4-(2-(isopropylamino)ethoxy)-3,5-dimethylphenyl)-5,7-dimethoxyquinazolin-4(3H)-one]
c-myc activity (<30 uM) (c-myc): Active
FRET activity (<50 uM) (Brd4 bromodomain 1): Active
cell proliferation activity (<30 uM) (Human AML MV-4-11 cells): Active

COc1cc2c(cc1-c1c(C)noc1C)ncc1[nH]c(=O)n([C@H](C)c3ccccn3)c12 [I-BET151]
bacterial-induced inflammation and sepsis [2]: suppress bacterial-induced inflammation and sepsis
IL-6 expression (IL-6): decrease IL-6 expression

COc1cc(OC)c2c(=O)[nH]c(-c3ccc(OCCNC(C)=O)c(C)c3)nc2c1 [Example 39, N-(2-(4-(5,7-dimethoxy-4-oxo-3,4-dihydroquinazolin-2-yl)-2-methylphenoxy)ethyl)acetamide]
FRET activity (<50 uM) (Brd4 bromodomain 1): Active

COc1cc(OC)c2c(=O)[nH]c(-c3cc(C)c(CNC(C)=O)c(C)c3)nc2n1 [Example 33, N-[4-(5,7-dimethoxy-4-oxo-3,4-dihydro-pyrido[2,3-d]pyrimidin-2-yl)-2,6-dimethyl-benzyl]-acetamide]
FRET activity (<50 uM) (Brd4 bromodomain 1): Active

Cc1cc(C)c2c(=O)[nH]c(-c3cc(C)c(OCCO)c(C)c3)nc2n1 [Example 13, 2-(4-(2-hydroxyethoxy)-3,5-dimethylphenyl)-5,7-dimethylpyrido[2,3-d]pyrimidin-4(3H)-one]
FRET activity (<50 uM) (Brd4 bromodomain 1): Active

CNC(=O)COc1c(C)cc(-c2nc3cc(OC)cc(OC)c3c(=O)[nH]2)cc1C [Example 22, 2-[4-(5,7-dimethoxy-4-oxo-3,4-dihydro-quinazolin-2-yl)-2,6-dimethyl-phenoxy]-N-methyl-acetamide]
FRET activity (<50 uM) (Brd4 bromodomain 1): Active

COc1cc(OC)c2c(=O)[nH]c(-c3cc(C)c(OCCN(C)C(C)=O)c(C)c3)nc2c1 [Example 41, N-(2-(4-(5,7-dimethoxy-4-oxo-3,4-dihydroquinazolin-2-yl)-2,6-dimethylphenoxy)ethyl)-N-methylacetamide]
FRET activity (<50 uM) (Brd4 bromodomain 1): Active

Cc1cc(-c2nc3cccc(Cl)c3c(=O)[nH]2)cc(C)c1OCCO [Example 27, 5-chloro-2-(4-(2-hydroxyethoxy)-3,5-dimethylphenyl)quinazolin-4(3H)-one]
FRET activity (<50 uM) (Brd4 bromodomain 1): Inactive

COc1cc(OC)c2c(=O)[nH]c(-c3cc(C)c(OCC(=O)NCc4ccccc4)c(C)c3)nc2c1 [Example 24, N-benzyl-2-[4-(5,7-dimethoxy-4-oxo-3,4-dihydroquinazolin-2-yl)-2,6-dimethylphenoxy]acetamide]
FRET activity (<50 uM) (Brd4 bromodomain 1): Active

From patent US20130281398A1, “TREATMENT OF DISEASES BY EPIGENETIC REGULATION” (RVX Therapeutics Inc., priority 2012, published 2013)
